Source: paper PMC10508264, “Exploring the antioxidant, antimicrobial, cytotoxic and biothermodynamic properties of novel morpholine derivative bioactive Mn(II), Co(II) and Ni(II) complexes – combined experimental and theoretical measurements towards DNA/BSA/SARS-CoV-2 3CL^Pro” (RSC Medicinal Chemistry, 2023)

Molecular target: BSA (Bos taurus, UniProt P02769)
Experiment: FRET computation, donor (BSA)–acceptor (compound)
Assay type: binding, bovine
Parameters: kET (rate of energy transfer): unit not given here
Conditions: for B (average brightness of complex–BSA system): free BSA 6573.60
Excerpt: The critical distance between donor and acceptor molecules can be estimated using the FRET approach to assess the binding affinity between BSA and a test substance.[13,33–35]
FRET is a non-destructive spectroscopic method consisting of a process between several electronic excited states of molecules that is dependent on distance (r). FRET can also be employed to distinguish the relative angular orientation and closeness of fluorophores.[82] The process happens when there is a large overlap between the absorption spectrum acceptor (compound/chromophore) and the donor's emission spectrum (BSA/fluorophore) (Fig. S30 ^†). Also, the average distance (r) between the donor and acceptor can be measured in accordance with this theory. Fluorescence is quenched due to energy being transmitted from the excited state of BSA to the substances (HL)/(1–3). As a result of the FRET analysis, the observed r findings were in the range of 2.4127–2.7129 nm (Table 5 and Fig. S30 ^†). […] The following conditions have a major impact on the effectiveness of FRET: (i) the distance (r) should be in the prescribed range of 2–8 nm for energy transfer; (ii) there is a large overlap between the emission spectrum of biomolecules (donors) and the electronic absorption spectrum of acceptors (substances); and (iii) the BSA and compound transition dipoles are oriented correctly. BSA transmits excitation energy to a compound during FRET without emitting a photon from the previous molecule system. Energy transfer (E) results were acquired from eqn (18) (Table 5). K^2 is associated with the geometry of the BSA and complex of the dipoles, the value for random orientation (K2 = 2/3) as in a fluid solution. Basically, the K^2 values were found in the range from 0 to 4, and energy can be transferred from BSA to the compound when electrons are transferred between the two molecules. For parallel transition dipoles that are aligned, K^2 is equal to 4, which denotes maximal energy transfer; and when the orientation of the dipoles is perpendicular to one another, K^2 is equal to 0, which denotes very weak energy transfer. When the relative orientation of the dipoles is random, K^2 is equal to 2/3. Eqn (20) is helpful for measuring the J values for overlap of the emission spectrum of BSA with the electronic absorption spectrum of the compound. The molar absorption coefficient (εA) and fluorescence emission intensity were both measured on the unit area scale of wavenumbers. It is imperative that J, after being normalized, is independent of the real size of εA. The following variables for the complex–BSA interaction are determined using eqn (18)–(23), n = 1.36, Φ = 0.15, E = 0.3462–0.5692, J = 0.8215–1.0886 × 10^−14 cm^3 L mol^−1, R0 = 2.4400–2.5573 nm, r = 2.4127–2.7129 nm, kET = 5.2941–13.2142 J s^−1 and B = 5339.79–6007.23 mol^−1 cm^−1 (Table 5). The observed values of R0 and r between BSA Trp213 and the interacting compound were substantially smaller than 8 nm and their relationships are found in the following sequence: 0.5R0 (1.2200–1.2786) < r (2.4127–2.7128) < 1.5R0 (3.6601–3.8358). […] Also, τ is denoted as the lifetime of fluorescence emission of the biomolecule and is described as the inverse of the entire degradation rate τ = 1/(kr + knr). The radiative lifetime of the fluorophore is represented as τ0 = 1/kr. The values of τ and Φ are associated with eqn (21) (Table 5). Quenching occurs when the ground or excited states of BSA come into contact with a compound in the solution. The intensity of fluorescence emission is also decreasing. Quenching is divided into the two main categories of dynamic and static quenching. While BSA is in an excited state, it binds with the substance during a dynamic or collisional quenching mechanism, and is then deactivated to the ground state without the emission of radiation. Therefore, the concentration of the quenching compounds affects dynamic quenching. The τ and Φ values for BSA diminish with an increase in the compound concentration. […]

## [Mn+2].[O-]c1ccccc1N=Cc1ccc(N2CCOCC2)cc1.[O-]c1ccccc1N=Cc1ccc(N2CCOCC2)cc1.c1ccc(-c2ccccn2)nc1 [(1)]
  E (efficiency of energy transfer): 0.4462
  J (spectral overlap integral): 1.0886 × 10^−14 (LM^−1 cm^3)
  R0 (Förster radius): 2.5573 nm
  kET (rate of energy transfer): 8.0556
  r (donor–acceptor distance): 2.6511 nm
  B (average brightness of complex–BSA system): 6007.23 M⁻¹ cm⁻¹

## [Co+2].[O-]c1ccccc1N=Cc1ccc(N2CCOCC2)cc1.[O-]c1ccccc1N=Cc1ccc(N2CCOCC2)cc1.c1ccc(-c2ccccn2)nc1 [(2)]
  E (efficiency of energy transfer): 0.5000
  J (spectral overlap integral): 1.0201 × 10^−14 (LM^−1 cm^3)
  R0 (Förster radius): 2.5297 nm
  kET (rate of energy transfer): 10.000
  r (donor–acceptor distance): 2.5297 nm
  B (average brightness of complex–BSA system): 5835.99 M⁻¹ cm⁻¹

## [Ni+2].[O-]c1ccccc1N=Cc1ccc(N2CCOCC2)cc1.[O-]c1ccccc1N=Cc1ccc(N2CCOCC2)cc1.c1ccc(-c2ccccn2)nc1 [(3)]
  E (efficiency of energy transfer): 0.5692
  J (spectral overlap integral): 1.0145 × 10^−14 (LM^−1 cm^3)
  R0 (Förster radius): 2.5274 nm
  kET (rate of energy transfer): 13.2142
  r (donor–acceptor distance): 2.4127 nm
  B (average brightness of complex–BSA system): 5822.04 M⁻¹ cm⁻¹

## Oc1ccccc1N=Cc1ccc(N2CCOCC2)cc1 [(HL), 2-(4-morpholinobenzylideneamino)phenol]
  E (efficiency of energy transfer): 0.3462
  J (spectral overlap integral): 0.8215 × 10^−14 (LM^−1 cm^3)
  R0 (Förster radius): 2.4400 nm
  kET (rate of energy transfer): 5.2941
  r (donor–acceptor distance): 2.7129 nm
  B (average brightness of complex–BSA system): 5339.79 M⁻¹ cm⁻¹
